Source: ChEMBL document CHEMBL1201862, “PubChem BioAssay data set” (2004)
The source made the active and inactive calls.

Legend:
[1] = tested on: HeLa; test: viability loss in HeLa cells – cell-based, 24 h, cherry-picked samples, cytotoxicity control, dose response (AID 504726); format: functional; settings: Homo sapiens;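 also: potency for cytotoxicity as loss of luminescence signal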
[2] = molecular target: T1, Aminopeptidase N (Plasmodium falciparum FcB1/Columbia, UniProt O96935); test: malaria alanyl aminopeptidase activity blockers – biochemical, fluorogenic H-Leu-NHMec substrate, 1536-well (AID 1445); set-up: species or system Plasmodium falciparum 3D7, 3D7
T1 sequence (O96935 whole entry): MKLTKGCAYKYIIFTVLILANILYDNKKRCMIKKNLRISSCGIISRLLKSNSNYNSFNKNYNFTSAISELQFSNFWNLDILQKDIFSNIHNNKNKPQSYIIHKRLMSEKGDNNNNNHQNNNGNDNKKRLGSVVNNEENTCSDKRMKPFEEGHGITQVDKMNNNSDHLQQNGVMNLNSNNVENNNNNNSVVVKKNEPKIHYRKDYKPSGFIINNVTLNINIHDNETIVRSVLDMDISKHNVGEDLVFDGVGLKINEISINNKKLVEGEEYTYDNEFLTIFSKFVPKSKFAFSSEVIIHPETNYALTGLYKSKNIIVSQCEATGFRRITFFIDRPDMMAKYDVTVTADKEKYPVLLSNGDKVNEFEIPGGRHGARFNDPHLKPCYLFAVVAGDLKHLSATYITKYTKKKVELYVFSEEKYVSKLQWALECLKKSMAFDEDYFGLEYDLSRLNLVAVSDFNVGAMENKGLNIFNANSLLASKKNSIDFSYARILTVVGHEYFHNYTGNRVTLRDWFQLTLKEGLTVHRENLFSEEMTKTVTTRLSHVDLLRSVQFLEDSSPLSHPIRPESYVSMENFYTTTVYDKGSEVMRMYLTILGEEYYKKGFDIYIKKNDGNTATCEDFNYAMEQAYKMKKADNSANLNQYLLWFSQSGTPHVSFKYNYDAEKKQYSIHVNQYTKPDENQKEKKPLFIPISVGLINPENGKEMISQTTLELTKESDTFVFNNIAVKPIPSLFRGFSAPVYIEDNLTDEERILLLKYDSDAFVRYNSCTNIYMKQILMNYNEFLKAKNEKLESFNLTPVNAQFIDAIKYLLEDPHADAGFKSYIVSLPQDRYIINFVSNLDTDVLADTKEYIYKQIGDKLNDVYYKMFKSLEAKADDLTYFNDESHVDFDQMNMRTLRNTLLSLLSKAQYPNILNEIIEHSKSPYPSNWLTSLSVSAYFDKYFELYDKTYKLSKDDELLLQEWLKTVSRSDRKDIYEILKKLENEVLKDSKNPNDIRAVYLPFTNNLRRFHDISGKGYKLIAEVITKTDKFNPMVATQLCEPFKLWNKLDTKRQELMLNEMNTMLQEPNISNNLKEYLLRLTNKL

[3] = molecular target: T2, Voltage-gated N-type calcium channel alpha-1B subunit/Amyloid beta A4 precursor protein-binding family A member 1 (Homo sapiens, UniProt Q00975+Q02410); format: protein assay
[4] = molecular target: T2, Voltage-gated N-type calcium channel alpha-1B subunit/Amyloid beta A4 precursor protein-binding family A member 1; format: protein assay; remark: listed apart in the source
[5] = molecular target: Eukaryotic translation initiation factor 4E (Mus musculus, UniProt P63073); test: blockers of eIF4G binding by eIF4E – biochemical, TR-FRET, dose response (AID 855); format: functional;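 also: potency for disrupting eIF4E binding to eIF4GI seen as loss of FRET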
[6] = molecular target: T3, Coagulation factor XII (Homo sapiens, UniProt P00748); format: functional;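 also: activated factor XIIa alpha cleaving a fluorogenic AMC peptide substrate; inhibitor potency from loss of enzyme activity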
T3 sequence (P00748 whole entry): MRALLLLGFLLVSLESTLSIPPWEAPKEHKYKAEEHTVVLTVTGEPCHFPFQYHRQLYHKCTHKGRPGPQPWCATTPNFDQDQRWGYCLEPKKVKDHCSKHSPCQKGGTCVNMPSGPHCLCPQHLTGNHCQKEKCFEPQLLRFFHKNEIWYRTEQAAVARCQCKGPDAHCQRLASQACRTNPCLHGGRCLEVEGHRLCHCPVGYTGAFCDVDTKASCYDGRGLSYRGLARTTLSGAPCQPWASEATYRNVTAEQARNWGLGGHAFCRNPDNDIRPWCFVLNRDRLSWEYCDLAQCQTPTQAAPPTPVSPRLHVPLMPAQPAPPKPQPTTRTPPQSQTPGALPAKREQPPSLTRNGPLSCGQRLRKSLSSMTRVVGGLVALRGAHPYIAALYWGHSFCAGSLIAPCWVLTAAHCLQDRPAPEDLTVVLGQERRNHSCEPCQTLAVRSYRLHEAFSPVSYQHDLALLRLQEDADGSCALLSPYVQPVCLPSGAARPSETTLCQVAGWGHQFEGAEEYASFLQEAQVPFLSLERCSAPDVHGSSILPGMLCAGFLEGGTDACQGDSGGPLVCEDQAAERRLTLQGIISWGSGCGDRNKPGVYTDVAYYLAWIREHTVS

[7] = luciferase reporter signal suppression in cells – H4 neuroglioma cells, luminescence, dose response (AID 1990); format: functional, cell-based
[8] = alpha-synuclein stem-loop luciferase translation blockers – H4 neuroglioma cells, luminescence, confirmation (AID 1988); format: functional, cell-based
[9] = HEK-293T cell viability reduction – luminescence, B-cell screen hits, cytotoxicity control for BCR NF-kB inhibitor project, dose response (AID 489021); format: functional, cell-based;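 also: HEK-293T cells carrying an NF-kB luciferase reporter; cells exposed to compound for about 14 hours before viability readout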
[10] = Luminescence Cell-Based Dose Response HTS to Identify Inhibitors of 5'UTR Stem-Loop Driven Prion Protein mRNA Translation in H4 Neuroglioblastoma Cells. [Related pubchem assays: 1827 (Project Summary), 1813 (Primary HTS)]; format: functional
[11] = tested on: H9c2; test: cells; format: functional, cell-based; settings: Rattus norvegicus, H9c2, Myocardium;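 also: confirmatory concentration-response retest of ultra-high-throughput screening hits for modulation of myocardial damage; cell death induced by hydrogen peroxide oxidative stress; compound pretreatment for 60 min then peroxide exposure for 2 h; potency is for protecting the cells against peroxide damage rather than for killing them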
[12] = molecular target: G-protein coupled receptor 55 (Homo sapiens, UniProt Q9Y2T6); test: selective activators of receptor GPR55 – imaging, U2OS cells, beta-arrestin-GFP redistribution, primary screen (AID 1961); format: functional
[13] = molecular target: T4, Zinc finger protein mex-5 (Caenorhabditis elegans, UniProt Q9XUB2); test: potency of MEX-5 RNA-binding blockers – biochemical, C. elegans, fluorescence polarization, dose response (AID 1960)
T4 sequence (Q9XUB2 whole entry): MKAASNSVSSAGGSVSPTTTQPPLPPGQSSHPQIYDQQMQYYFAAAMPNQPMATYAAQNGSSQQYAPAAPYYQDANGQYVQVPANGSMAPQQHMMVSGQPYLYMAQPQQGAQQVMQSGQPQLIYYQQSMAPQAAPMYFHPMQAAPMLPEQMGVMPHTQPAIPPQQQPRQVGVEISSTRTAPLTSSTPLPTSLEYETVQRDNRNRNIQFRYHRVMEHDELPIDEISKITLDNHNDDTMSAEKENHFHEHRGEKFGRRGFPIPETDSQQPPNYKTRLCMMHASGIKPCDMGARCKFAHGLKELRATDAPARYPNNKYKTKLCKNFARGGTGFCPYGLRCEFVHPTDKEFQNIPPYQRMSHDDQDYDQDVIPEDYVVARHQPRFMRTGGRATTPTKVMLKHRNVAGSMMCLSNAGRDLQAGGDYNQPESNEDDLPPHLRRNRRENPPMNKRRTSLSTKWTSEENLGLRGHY

[14] = molecular target: T5, RNA-binding protein pos-1 (Caenorhabditis elegans, UniProt G5EF15); test: disruptors of C. elegans POS-1 RNA interaction – biochemical, fluorescence polarization, dose response (AID 1964);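 also: purified POS-1 fused to maltose binding protein made in E. coli; potency of compounds blocking POS-1 binding to fluorescent RNA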
T5 sequence (G5EF15 whole entry): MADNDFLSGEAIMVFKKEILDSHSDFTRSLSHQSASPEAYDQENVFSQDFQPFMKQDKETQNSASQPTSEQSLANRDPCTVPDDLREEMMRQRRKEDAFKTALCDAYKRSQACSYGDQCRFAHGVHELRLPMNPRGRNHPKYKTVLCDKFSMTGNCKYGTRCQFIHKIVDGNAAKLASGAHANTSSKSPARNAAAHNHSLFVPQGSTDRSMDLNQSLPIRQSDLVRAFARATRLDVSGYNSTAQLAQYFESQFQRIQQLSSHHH

[15] = molecular target: Peroxisome proliferator-activated receptor gamma/Nuclear receptor coactivator 2 (Homo sapiens, UniProt P37231); test: (§1) TR-FRET dose response biochemical High Throughput Screening assay for agonists of the steroid receptor coactivator 2 (SRC-2) recruitment by the peroxisome proliferator-activated receptor gamma (PPAR gamma): non-selective agonists. [Related pubchem assays: 1297, 1032 ]; format: functional
[16] = molecular target: Peroxisome proliferator-activated receptor gamma/Nuclear receptor coactivator 1 (Homo sapiens, UniProt P37231); test: as §1, with “1 (SRC-1)” for “2 (SRC-2)”, “assays (depositor defined):AID1300, AID1808, AID504735, AID631]” for “assays: 1297, 1032 ]”; format: protein assay
[17] = molecular target: Peroxisome proliferator-activated receptor gamma/Nuclear receptor coactivator 3 (Homo sapiens, UniProt P37231); test: as §1, with “3 (SRC-3)” for “2 (SRC-2)”, “1301 (Confirmation screen.), 1048 (Primary screen.)]” for “1297, 1032 ]”; format: functional
[18] = tested on: HEK293; test: cells; settings: Homo sapiens
[19] = tested on: HEK293; test: cells; settings: Homo sapiens; remark: listed apart in the source

T2 sequence (Q00975 whole entry): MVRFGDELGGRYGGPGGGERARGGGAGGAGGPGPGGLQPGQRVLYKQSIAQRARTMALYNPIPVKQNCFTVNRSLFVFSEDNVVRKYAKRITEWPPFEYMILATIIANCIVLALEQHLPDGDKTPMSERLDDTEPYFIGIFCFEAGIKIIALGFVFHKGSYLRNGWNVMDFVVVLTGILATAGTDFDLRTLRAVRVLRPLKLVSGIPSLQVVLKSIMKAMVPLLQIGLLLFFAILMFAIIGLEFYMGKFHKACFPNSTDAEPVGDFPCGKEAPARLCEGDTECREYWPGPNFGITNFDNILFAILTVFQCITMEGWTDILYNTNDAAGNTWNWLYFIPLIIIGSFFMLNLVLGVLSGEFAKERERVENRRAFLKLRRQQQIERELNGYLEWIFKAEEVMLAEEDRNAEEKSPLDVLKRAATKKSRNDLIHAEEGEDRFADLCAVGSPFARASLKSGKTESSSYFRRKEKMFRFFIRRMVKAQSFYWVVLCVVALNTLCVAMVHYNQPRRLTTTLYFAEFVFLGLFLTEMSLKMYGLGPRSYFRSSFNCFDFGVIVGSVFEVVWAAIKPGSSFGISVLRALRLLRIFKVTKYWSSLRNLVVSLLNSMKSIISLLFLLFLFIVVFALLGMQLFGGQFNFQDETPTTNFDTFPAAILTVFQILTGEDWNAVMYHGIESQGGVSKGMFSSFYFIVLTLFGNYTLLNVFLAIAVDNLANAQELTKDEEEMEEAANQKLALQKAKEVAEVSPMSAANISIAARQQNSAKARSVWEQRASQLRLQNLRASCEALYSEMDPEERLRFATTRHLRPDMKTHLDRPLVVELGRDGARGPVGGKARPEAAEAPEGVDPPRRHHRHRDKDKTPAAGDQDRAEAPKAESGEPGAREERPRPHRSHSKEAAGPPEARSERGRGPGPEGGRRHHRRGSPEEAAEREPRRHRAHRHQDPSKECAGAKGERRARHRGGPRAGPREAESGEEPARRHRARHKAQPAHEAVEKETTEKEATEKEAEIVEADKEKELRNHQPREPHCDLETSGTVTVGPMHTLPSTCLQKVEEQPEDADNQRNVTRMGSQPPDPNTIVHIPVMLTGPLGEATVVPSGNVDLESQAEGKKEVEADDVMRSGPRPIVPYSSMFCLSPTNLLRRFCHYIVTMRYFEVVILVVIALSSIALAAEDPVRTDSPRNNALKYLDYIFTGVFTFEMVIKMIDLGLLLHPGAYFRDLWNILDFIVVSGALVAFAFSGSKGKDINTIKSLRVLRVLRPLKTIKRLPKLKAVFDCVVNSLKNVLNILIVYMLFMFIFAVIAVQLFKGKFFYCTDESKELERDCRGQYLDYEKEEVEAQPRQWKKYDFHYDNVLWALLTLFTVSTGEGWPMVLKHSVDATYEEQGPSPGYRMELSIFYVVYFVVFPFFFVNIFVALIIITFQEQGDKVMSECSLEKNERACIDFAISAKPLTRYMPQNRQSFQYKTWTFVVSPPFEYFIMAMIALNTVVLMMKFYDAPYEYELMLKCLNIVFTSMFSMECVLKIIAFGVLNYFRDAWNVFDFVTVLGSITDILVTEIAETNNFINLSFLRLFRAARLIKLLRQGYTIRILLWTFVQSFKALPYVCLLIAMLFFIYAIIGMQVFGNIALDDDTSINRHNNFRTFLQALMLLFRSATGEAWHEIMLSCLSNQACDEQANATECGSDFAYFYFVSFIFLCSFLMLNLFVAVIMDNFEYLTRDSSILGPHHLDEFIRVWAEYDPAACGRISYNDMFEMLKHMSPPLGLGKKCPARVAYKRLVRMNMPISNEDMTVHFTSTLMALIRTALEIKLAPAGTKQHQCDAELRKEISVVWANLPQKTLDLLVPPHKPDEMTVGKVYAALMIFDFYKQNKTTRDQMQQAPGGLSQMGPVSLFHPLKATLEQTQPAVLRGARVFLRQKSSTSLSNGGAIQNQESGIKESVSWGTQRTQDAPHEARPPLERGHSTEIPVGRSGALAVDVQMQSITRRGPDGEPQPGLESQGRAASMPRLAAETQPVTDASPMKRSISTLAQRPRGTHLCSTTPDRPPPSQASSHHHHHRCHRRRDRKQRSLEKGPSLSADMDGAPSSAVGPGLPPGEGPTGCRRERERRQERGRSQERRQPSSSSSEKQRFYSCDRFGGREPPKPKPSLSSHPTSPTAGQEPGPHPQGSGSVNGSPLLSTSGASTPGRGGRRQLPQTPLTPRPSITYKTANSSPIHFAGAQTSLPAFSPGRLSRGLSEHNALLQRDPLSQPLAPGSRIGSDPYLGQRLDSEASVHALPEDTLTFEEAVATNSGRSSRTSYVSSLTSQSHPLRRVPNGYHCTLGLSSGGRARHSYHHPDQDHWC
T2 sequence (Q02410 whole entry): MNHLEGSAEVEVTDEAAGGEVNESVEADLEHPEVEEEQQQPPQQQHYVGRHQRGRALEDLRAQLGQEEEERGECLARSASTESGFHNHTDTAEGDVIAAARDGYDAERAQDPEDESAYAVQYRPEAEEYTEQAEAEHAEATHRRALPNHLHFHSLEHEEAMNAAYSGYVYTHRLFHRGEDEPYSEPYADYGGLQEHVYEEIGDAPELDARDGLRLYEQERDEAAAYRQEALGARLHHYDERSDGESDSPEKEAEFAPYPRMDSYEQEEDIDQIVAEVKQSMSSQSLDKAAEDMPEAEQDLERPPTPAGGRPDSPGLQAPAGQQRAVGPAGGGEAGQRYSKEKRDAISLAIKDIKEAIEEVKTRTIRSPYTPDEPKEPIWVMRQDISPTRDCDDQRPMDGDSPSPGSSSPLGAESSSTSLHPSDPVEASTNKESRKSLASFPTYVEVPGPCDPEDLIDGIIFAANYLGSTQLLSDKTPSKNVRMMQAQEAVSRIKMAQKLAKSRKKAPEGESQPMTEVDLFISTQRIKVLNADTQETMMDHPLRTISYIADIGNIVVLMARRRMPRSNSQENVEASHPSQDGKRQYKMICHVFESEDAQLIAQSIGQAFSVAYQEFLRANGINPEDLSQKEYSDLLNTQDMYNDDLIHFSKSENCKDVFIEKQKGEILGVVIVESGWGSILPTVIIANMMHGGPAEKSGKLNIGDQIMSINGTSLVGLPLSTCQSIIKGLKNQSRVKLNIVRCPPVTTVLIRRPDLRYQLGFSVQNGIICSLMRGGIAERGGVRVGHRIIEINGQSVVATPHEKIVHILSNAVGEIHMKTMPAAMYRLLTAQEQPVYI
Eukaryotic translation initiation factor 4E, sequence (P63073 whole entry): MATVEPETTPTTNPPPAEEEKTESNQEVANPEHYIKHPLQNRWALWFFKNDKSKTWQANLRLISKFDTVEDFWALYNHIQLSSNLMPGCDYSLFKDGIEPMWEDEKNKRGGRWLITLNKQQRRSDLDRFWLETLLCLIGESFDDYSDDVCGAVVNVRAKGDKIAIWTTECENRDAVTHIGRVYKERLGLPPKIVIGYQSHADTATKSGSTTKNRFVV
G-protein coupled receptor 55, sequence (Q9Y2T6 whole entry): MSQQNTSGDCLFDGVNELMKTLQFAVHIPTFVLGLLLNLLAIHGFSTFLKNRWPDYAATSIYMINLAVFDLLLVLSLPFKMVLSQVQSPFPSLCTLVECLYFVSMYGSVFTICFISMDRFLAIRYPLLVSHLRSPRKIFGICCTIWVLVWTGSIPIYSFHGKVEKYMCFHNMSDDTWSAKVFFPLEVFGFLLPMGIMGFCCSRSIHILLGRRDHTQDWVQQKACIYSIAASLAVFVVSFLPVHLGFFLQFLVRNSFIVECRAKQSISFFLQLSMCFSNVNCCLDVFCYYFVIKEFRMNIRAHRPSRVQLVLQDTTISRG

COC(=O)c1ccc(OCC(O)CN2CCC(C)CC2)cc1 (stereo unspecified)
AC50 [1]: 124 µM (active)

O=c1oc2c(CN3CCCCC3)c(O)ccc2c2c1CCCC2
IC50 [2]: 65.3 µM (active)

CCc1cc2c(=O)c(Oc3ccccc3F)c(C)oc2c(CN(C)C)c1O
IC50 [3]: 1.5 µM (active) | IC50 [4]: > 50 µM (inactive)

COc1ccc(C(=O)NC(=S)Nc2ccc(NC(=O)c3ccco3)cc2)cc1[N+](=O)[O-]
IC50 [3]: 11.9 µM (active) | IC50 [4]: > 50 µM (inactive)

O=C(CC1CCCCC1)NCC1CCCO1 (stereo unspecified)
IC50 [5]: > 64 µM (inactive)

CN1CCN(c2ncnc(Cl)c2N)CC1
IC50 [6]: > 50 µM (inactive)

COc1cc(OC)cc(-c2cc3nc(C)c(CCC(=O)Nc4nc(C)cs4)c(C)n3n2)c1
EC50 [7]: 16.9 µM (active) | EC50 [8]: 24.2 µM (active) | IC50 [9]: > 80 µM (inactive) | EC50 [10]: 13.2 µM (active) | IC50 [11]: > 79 µM (inactive)

O=C(/C=C/c1cccs1)NC(=S)Nc1ccc(C(=O)O)cc1
IC50 [2]: 28.8 µM (active)

CCOC(=O)c1cn(Cc2ccccc2)nn1
IC50 [6]: > 50 µM (inactive)

CCc1cccc(OCC(=O)Nc2cc(S(=O)(=O)N3CCOCC3)ccc2N2CCCC2)c1
EC50 [12]: 4.03 µM (active)

CCOC(=O)C1=NN(C(=O)c2cccc(Br)c2)C(O)(C(C)(C)C)C1 (stereo unspecified)
IC50 [2]: 44 µM (active)

Cc1ccccc1CSc1nncn1N
IC50 [5]: > 64 µM (inactive)

CCN1/C(=C2/SC(=S)N(NC(C)=O)C2=O)Sc2ccc(OC)cc21
AC50 [1]: 122 µM (active) | EC50 [13]: > 300 µM (not active) | EC50 [14]: > 300 µM (not active)

O=C(C1=C(O)C(=O)N(CCCN2CCOCC2)C1c1ccncc1)c1cc2ccccc2o1 (stereo unspecified)
EC50 [15]: > 79.4 µM (not active) | EC50 [16]: > 79.4 µM (inactive) | EC50 [17]: > 79.4 µM (not active)

O=C(O/N=C(\c1ccccc1)c1ccccn1)c1cccc2ccccc12
EC50 [12]: > 32 µM (inactive)

COC(=O)c1ccc(C2C(C(=O)c3cc4ccccc4o3)=C(O)C(=O)N2CCCN(C)C)cc1 (stereo unspecified)
EC50 [15]: 51.9 µM (not active) | EC50 [16]: > 79.4 µM (inactive) | EC50 [17]: > 79.4 µM (not active)

Fc1ccc(-c2csc3ncnc(Nc4ccc(N5CCOCC5)cc4)c23)cc1
EC50 [18]: > 59.6 µM (inactive) | EC50 [19]: > 59.6 µM (inactive)

COc1ccc(CCNC(=O)Cn2cnc3c(cnn3-c3ccccc3Cl)c2=O)cc1OC
IC50 [5]: > 64 µM (inactive)
